Measurements from US20240158412A1 (Faxian Therapeutics, LLC, priority 2021, published 2024).
pIC50: −log10 of the molar value.
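Further: fluorescence intensity readout of USP7 enzymatic activity, reaction incubated 90 min at room temperature.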

What follows are molecules tested against USP7 (Homo sapiens, UniProt Q93009) (assay: biochemical).
USP7, sequence (Q93009 whole entry): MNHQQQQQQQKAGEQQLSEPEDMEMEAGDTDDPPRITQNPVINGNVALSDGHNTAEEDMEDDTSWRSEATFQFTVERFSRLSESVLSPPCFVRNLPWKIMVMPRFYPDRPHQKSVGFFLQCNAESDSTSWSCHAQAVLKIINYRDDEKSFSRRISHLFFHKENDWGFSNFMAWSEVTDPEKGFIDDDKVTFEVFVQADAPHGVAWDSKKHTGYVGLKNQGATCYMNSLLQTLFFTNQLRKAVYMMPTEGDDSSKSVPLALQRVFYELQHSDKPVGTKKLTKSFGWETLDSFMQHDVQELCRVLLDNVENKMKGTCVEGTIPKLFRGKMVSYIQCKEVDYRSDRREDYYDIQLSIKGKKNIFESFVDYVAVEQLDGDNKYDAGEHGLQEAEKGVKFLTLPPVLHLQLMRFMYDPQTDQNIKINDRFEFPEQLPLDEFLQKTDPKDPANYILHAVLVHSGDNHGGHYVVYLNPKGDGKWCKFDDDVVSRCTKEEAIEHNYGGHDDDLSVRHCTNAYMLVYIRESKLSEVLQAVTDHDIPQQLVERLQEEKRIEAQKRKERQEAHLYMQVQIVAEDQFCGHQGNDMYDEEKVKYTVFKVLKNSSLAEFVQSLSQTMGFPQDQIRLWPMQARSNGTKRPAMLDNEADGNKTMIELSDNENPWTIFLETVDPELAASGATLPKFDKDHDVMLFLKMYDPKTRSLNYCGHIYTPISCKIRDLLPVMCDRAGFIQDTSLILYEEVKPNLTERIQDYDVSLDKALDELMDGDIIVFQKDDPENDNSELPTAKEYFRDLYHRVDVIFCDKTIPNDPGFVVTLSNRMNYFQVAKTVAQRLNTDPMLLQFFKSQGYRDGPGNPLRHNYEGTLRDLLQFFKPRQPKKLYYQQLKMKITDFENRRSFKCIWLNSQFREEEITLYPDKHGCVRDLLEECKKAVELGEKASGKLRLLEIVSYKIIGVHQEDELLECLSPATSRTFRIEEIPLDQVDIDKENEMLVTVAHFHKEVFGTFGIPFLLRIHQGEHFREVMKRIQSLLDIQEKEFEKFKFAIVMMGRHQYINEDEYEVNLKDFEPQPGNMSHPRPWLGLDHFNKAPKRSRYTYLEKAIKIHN
In the case of CC(C)(C)c1cnn(Cc2cc3nccc(-c4cc(C#N)cc5c4N([C@@H]4CN[C@@](C)(CO)C4)CCO5)c3s2)c(=O)c1 [Example 221, 5-[2-[(4-tert-butyl-6-oxo-pyridazin-1-yl)methyl]thieno[3,2-b]pyridin-7-yl]-4-[(3S,5R)-5-(hydroxymethyl)-5-methyl-pyrrolidin-3-yl]-2,3-dihydro-1,4-benzoxazine-7-carbonitrile], the pIC50 was greater than 8.00. In the case of C[C@]1(CO)C[C@H](N2CCOc3cc(C#N)cc(-c4ccnc5cc(Cn6ncc(C7(C(F)(F)F)CC7)cc6=O)sc45)c32)CN1 [Example 222, 4-[(3S,5R)-5-(hydroxymethyl)-5-methyl-pyrrolidin-3-yl]-5-[2-[[6-oxo-4-[1-(trifluoromethyl)cyclopropyl]pyridazin-1-yl]methyl]thieno[3,2-b]pyridin-7-yl]-2,3-dihydro-1,4-benzoxazine-7-carbonitrile], the pIC50 was greater than 8.00. C[C@]1(CO)C[C@H](N2CCOc3cc(C#N)cc(-c4cc[n+]([O-])c5cc(Cn6ncc(C7(C(F)(F)F)CC7)cc6=O)sc45)c32)CN1 [Example 223, 7-(7-cyano-4-((3S,5R)-5-(hydroxymethyl)-5-methylpyrrolidin-3-yl)-3,4-dihydro-2H-benzo[b][1,4]oxazin-5-yl)-2-((6-oxo-4-(1-(trifluoromethyl)cyclopropyl)pyridazin-1(6H)-yl)methyl)thieno[3,2-b]pyridine 4-oxide] was tested, and the pIC50 was 7.00 to 8.00. Molecule C[C@]1(CO)C[C@H](N2CCOc3cc(C(F)(F)F)cc(-c4ccnc5cc(CN6C(=O)CCC6=O)sc45)c32)CN1 [Example 224, 1-((7-(4-((3S,5R)-5-(hydroxymethyl)-5-methylpyrrolidin-3-yl)-7-(trifluoromethyl)-3,4-dihydro-2H-benzo[b][1,4]oxazin-5-yl)thieno[3,2-b]pyridin-2-yl)methyl)pyrrolidine-2,5-dione] has a pIC50 greater than 8.00. Molecule CC(C)(C)c1cnn(Cc2cc3nccc(-c4cc(C#N)cc5c4N([C@@H]4CN[C@@](C)(CO)C4)C(=O)CO5)c3s2)c(=O)c1 [Example 225, 5-(2-((4-(tert-butyl)-6-oxopyridazin-1(6H)-yl)methyl)thieno[3,2-b]pyridin-7-yl)-4-((3S,5R)-5-(hydroxymethyl)-5-methylpyrrolidin-3-yl)-3-oxo-3,4-dihydro-2H-benzo[b][1,4]oxazine-7-carbonitrile] has a pIC50 greater than 8.00. C[C@]1(CO)C[C@H](N2C(=O)COc3cc(C#N)cc(-c4ccnc5cc(Cn6ncc(C7(C(F)(F)F)CC7)cc6=O)sc45)c32)CN1 [Example 226, 4-[(3S,5R)-5-(hydroxymethyl)-5-methyl-pyrrolidin-3-yl]-3-oxo-5-[2-[[6-oxo-4-[1-(trifluoromethyl)cyclopropyl]pyridazin-1-yl]methyl]thieno[3,2-b]pyridin-7-yl]-1,4-benzoxazine-7-carbonitrile] gave a pIC50 greater than 8.00. O=C1CCC(=O)N1Cc1cc2nccc(-c3cc(Cl)cc4c3N(c3cn[nH]c3)C(=O)CC4)c2s1 [Example 228, 1-((7-(6-chloro-2-oxo-1-(1H-pyrazol-4-yl)-1,2,3,4-tetrahydroquinolin-8-yl)thieno[3,2-b]pyridin-2-yl)methyl)pyrrolidine-2,5-dione] was tested, and the pIC50 was 6.00 to 7.00.
